From EP0367974A1, “Cis-complexes with a 1,3-diaminopropane derivative as a ligand, methods for their preparation and pharmaceutical agents containing such complexes” (BEHRINGWERKE Aktiengesellschaft, priority 1988, dated 1990)

Tests used:
L1210-Leukämiezellen = test: Colony formation of L1210 leukaemia cells in soft agar; assay type: cell-based, Maus; conditions: colony number vs untreated control, 7 days at 37° C; 1 h incubation or continuous exposure not specified
Source text: Die Bestimmung der zytostatischen Wirksamkeit der hier beschriebenen Verbindungen erfolgte an L1210-Leukämiezellen der Maus. Im einzelnen wurden folgende Testsysteme verwendet:
Diese Methode dient zum Nachweis eines Einflusses der Testsubstanzen auf das Wachstumsverhalten der Zellen über mehrere Generationen (bei einer Zellzykluszeit von 10 - 12 Stunden werden in der Testzeit von 7 Tagen etwa 14 aufeinanderfolgende Generationen beobachtet). Zytostatisch wirksame Substanzen bewirken in diesem Test eine Reduktion der zu beobachtenden Koloniezahl gegenüber einer unbehandelten Kontrolle. Im einzelnen wird der Test wie folgt durchgeführt: Leukämiezellen werden mit unterschiedlichen Konzentrationen von Testsubstanz 1 Stunde bei 37° C inkubiert.
Anschließend werden die Zellen zweimal mit McCoy5A-Medium gewaschen und schließlich in Petrischalen nach Zusatz von 0.3 % Agar ausgegossen (500 Zellen/Platte). Kontrollen werden lediglich mit frischem Medium inkubiert. Anstelle der einstündigen Inkubation werden in manchen Fällen unterschiedliche Konzentrationen und Testsubstanz der oberen Agarschicht zugemischt, um so eine kontinuierliche Exposition der Zellen über die gesamte Inkubationszeit zu erreichen. Nach Erstarren des Agars werden die Platten im Brutschrank 7 Tage bei 37° C inkubiert ( 5 Vol-% CO₂, 95 % relative Luftfeuch tigkeit). Anschließend wird die Anzahl der entstandenen Kolonien mit einem Durchmesser von mehr als 60 µ gezählt. Die Ergebnisse werden angegeben als Koloniezahl in behandelten Agarplatten, in Prozent der unbehandelten Kontrolle. Aus der so erhalten Dosiswirkungskurve wird die IC₅₀ als Maß für die Wirksamkeit der Substanz ermittelt.

L1210 Leukämie der Maus = test: In vivo efficacy of the platinum complexes against L1210 leukaemia of the mouse; set-up: opt. Dose: unit not given here; conditions: for opt. Dose: dose with the greatest antitumoural effect, schedule 3 x i.p./i.p.; for T/C % L1210: treatment schedule 3 x i.p./i.p., mean survival time vs control at optimal dose; for LTS (Long Term Survivor): animals alive on day 60 (cured) per group of 6, at optimal dose, 3 x i.p./i.p.
Procedure: Ascitesflüssigkeit wird unter sterilen Bedingungen DBA2 Mäusen (weiblich, 18 - 20 g) 7 Tage nach Implantation entnommen. Der Ascites wird dreimal mit PBS gewaschen, gezählt und auf eine Zellzahl von 10⁶ in 0.2 ml PBS eingestellt. 10⁶ Zellen, suspendiert in 0.2 ml PBS, werden anschlie-ßend DBF1 Mäusen (weiblich, 18 - 20 g) intraperitoneal injiziert. 6 Tiere pro Gruppe werden für jede Substanz konzentration bzw. als Kontrolle eingesetzt.
• a) Die Tiere werden am Tag 1 und 5 nach Injektion der Testsubstanz gewogen.
Die Dosis, die den größten antitumoralen Effekt (optimale Dosierung) sowie jeweils eine Dosisstufe oberhalb und unterhalb dieser Dosis wurden angegeben. Tiere, die am Tag 60 des Experimentes noch leben, werden als geheilt zusätzlich getrennt aufgeführt.

NMRI-Mäusen = test: Acute toxicity in mice (LD50, Litchfield-Wilcoxon); assay type: in vivo, Maus; conditions: 3 x i.p.; survivors counted day 14 after last injection
Procedure: Zur Ermittlung der akuten Toxizität werden NMRI-Mäusen am Tag 0 unterschiedliche Dosen der Testsubstanz gelöst in 0.5 ml 5 %iger Glucose-Lösung, intraperitoneal injiziert. Kontrollgruppen erhalten lediglich 0.5 ml 5 %ige Glucose-Lösung. Pro Konzentration der Testsubstanz werden 5 Mäuse verwendet. Am Tag 14 nach der letzten Injektion wird die Zahl der überlebenden Mäuse ermittelt und daraus nach der Lichtfield Wilcoxon Methode die LD5, LD50 und LD95 ermittelt.

| Structure (SMILES) | IC₅₀ (L1210-Leukämiezellen) [µg/mL] | opt. Dose (L1210 Leukämie der Maus) | T/C % L1210 (L1210 Leukämie der Maus) [%] | LD₅₀ (NMRI-Mäusen) [mg/kg] | LTS (Long Term Survivor) (L1210 Leukämie der Maus) |
| --- | --- | --- | --- | --- | --- |
| N.N.[Cl][Pt][Cl] [Cisplatin, reference compound] | 0.04 | 4 | 157 | – | – |
| CCC(CN)(CN)COC.O=C1[O][Pt][O]C(=O)C12CC2 [Verbindung 1, 1,3-Diamino-2-ethyl-2-methoxymethyl-propan-N,N′-platin(II)-O,O′-cyclopropan-1,1-dicarboxylat] | 5.0 | 50 | 450 | 90 to 120 | 6/6 |
| COCC(C)(CN)CN.O=C([O-])C1(C(=O)[O-])CC1.[Pt+2] [Verbindung 2, 1,3-Diamino-2-methoxymethyl-2-methyl-propan-N,N′-platin(II)-O,O′-cyclopropan-1,1-dicarboxylat] | 4.2 | – | – | – | – |
| CCC(CN)(CN)COC.COC1C(=O)[O][Pt][O]C1=O [Verbindung 9, 1,3-Diamino-2-ethyl-2-methoxymethyl-propan-N,N′-platin(II)-O,O′-2-methoxymalonat] | 2.35 | 16 | 306 | 60 | 3/6 |
| CCC(CN)(CN)COC.O=C1C[O][Pt][O]1 [Verbindung 16, 1,3-Diamino-2-ethyl-2-methoxymethyl-propan-N,N′-platin(II)-O,O′-2-hydroxy-acetat] | 1.2 | 15.8 | 361 | – | 4/6 |
| COCC(C)(CN)CN.O=C1C[O][Pt][O]1 [Verbindung 17, 1,3-Diamino-2-methoxymethyl-2-methyl-propan-N,N′-platin(II)-O,O′-2-hydroxy-acetat] | 1.8 | 9.5 | 225 | – | 1/6 |
| CCC(CN)(CN)COC.CCC1(C)[O][Pt][O]C1=O [Verbindung 22, 1,3-Diamino-2-ethyl-2-methoxymethyl-propan-N,N′-platin(II)-O,O′-(2-hydroxy-2-methyl)-butyrat] | 2.9 | – | – | 90 to 180 | – |
